Measurements published in PubChem BioAssay (NCI).
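A five-concentration, 48-hour dose response in 96-well plates underlies each endpoint, interpolated linearly between surrounding concentrations. TGI: concentration producing complete growth inhibition.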

How the values were obtained:
Test in all cases: NCI tumour cell line growth inhibition, 48 h
[1] = tested on: SF-539 CNS
[2] = tested on: NCI-H226 lung
[3] = tested on: M14 melanoma
[4] = tested on: UACC-62 melanoma
[5] = tested on: UACC-257 melanoma
[6] = tested on: M19-MEL melanoma
[7] = tested on: DU-145 prostate
[8] = tested on: SF-295 CNS
[9] = tested on: MALME-3M melanoma
[10] = tested on: K-562 leukemia
[11] = tested on: SK-OV-3 ovarian
[12] = tested on: UO-31 renal
[13] = tested on: SR leukemia
[14] = tested on: BT-549 breast
[15] = tested on: SNB-78 CNS
[16] = tested on: RPMI-8226 leukemia
[17] = tested on: COLO 205 colon
[18] = tested on: SW-620 colon
[19] = tested on: PC-3 prostate
[20] = tested on: MCF7 breast
[21] = tested on: HS 578T breast
[22] = tested on: OVCAR-5 ovarian
[23] = tested on: HCT-15 colon
[24] = tested on: OVCAR-3 ovarian
[25] = tested on: OVCAR-4 ovarian
[26] = tested on: 786-0 renal
[27] = tested on: CAKI-1 renal
[28] = tested on: HOP-92 NSCLC
[29] = tested on: IGROV1 ovarian
[30] = tested on: OVCAR-8 ovarian
[31] = tested on: A549 NSCLC
[32] = tested on: LOX IMVI melanoma
[33] = tested on: SN12C renal
[34] = tested on: NCI-H460 lung
[35] = tested on: LXFL 529 NSCLC
[36] = tested on: MDA-MB-231 breast
[37] = tested on: SF-268 CNS
[38] = tested on: HL-60(TB) leukemia
[39] = tested on: U251 CNS
[40] = tested on: SK-MEL-2 melanoma
[41] = tested on: SK-MEL-5 melanoma
[42] = tested on: T-47D breast
[43] = tested on: MDA-N
[44] = tested on: HCT-116 colon
[45] = tested on: MOLT-4 leukemia
[46] = tested on: DMS 273 small cell lung
[47] = tested on: SK-MEL-28 melanoma
[48] = tested on: HCC-2998 colon
[49] = tested on: KM20L2 colon
[50] = tested on: DLD-1 colon
[51] = tested on: MDA-MB-435
[52] = tested on: NCI-H23 lung
[53] = tested on: SNB-19 CNS
[54] = tested on: HOP-62 NSCLC
[55] = tested on: EKVX NSCLC
[56] = tested on: ACHN renal
[57] = tested on: NCI-H522 lung
[58] = tested on: NCI/ADR-RES ovarian
[59] = tested on: TK-10 renal
[60] = tested on: KM12 colon
[61] = tested on: CCRF-CEM leukemia
[62] = tested on: HT29 colon
[63] = tested on: RXF-631 renal
[64] = tested on: A498 renal
[65] = tested on: SNB-75 CNS
[66] = tested on: DMS 114 small cell lung
[67] = tested on: RXF 393 renal

Cc1ccc(C(=O)Oc2ccccc2)cc1N=NN(C)C
TGI [1]: > 100 µM | TGI [2]: > 100 µM | TGI [3]: > 100 µM | TGI [4]: > 100 µM | TGI [5]: > 100 µM | TGI [6]: > 100 µM | TGI [7]: > 100 µM | TGI [8]: > 100 µM | TGI [9]: > 100 µM | TGI [10]: > 100 µM | TGI [11]: > 100 µM | TGI [12]: > 100 µM | TGI [13]: > 100 µM | TGI [14]: > 100 µM | TGI [15]: > 100 µM | TGI [16]: > 100 µM | TGI [17]: > 100 µM | TGI [18]: > 100 µM | TGI [19]: > 100 µM | TGI [20]: > 100 µM | TGI [21]: > 100 µM | TGI [22]: > 100 µM | TGI [23]: > 100 µM | TGI [24]: > 100 µM | TGI [25]: > 100 µM | TGI [26]: > 100 µM | TGI [27]: > 100 µM | TGI [28]: > 100 µM | TGI [29]: > 100 µM | TGI [30]: > 100 µM | TGI [31]: > 100 µM | TGI [32]: > 100 µM | TGI [33]: > 100 µM | TGI [34]: > 100 µM | TGI [35]: > 100 µM | TGI [36]: > 100 µM | TGI [37]: > 100 µM | TGI [38]: > 100 µM | TGI [39]: > 100 µM | TGI [40]: > 100 µM | TGI [41]: > 100 µM | TGI [42]: > 100 µM | TGI [43]: > 100 µM | TGI [44]: > 100 µM | TGI [45]: > 100 µM | TGI [46]: > 100 µM | TGI [47]: > 100 µM | TGI [48]: > 100 µM | TGI [49]: > 100 µM | TGI [50]: > 100 µM | TGI [51]: > 100 µM | TGI [52]: > 100 µM | TGI [53]: > 100 µM | TGI [54]: > 100 µM | TGI [55]: > 100 µM | TGI [56]: > 100 µM | TGI [57]: > 100 µM | TGI [58]: > 100 µM | TGI [59]: > 100 µM | TGI [60]: > 100 µM | TGI [61]: > 100 µM | TGI [62]: > 100 µM

CCN(c1ccccc1)[C@H]1C(=O)N(c2ccc([N+](=O)[O-])cc2)[C@H]1c1ccc(OC)cc1
TGI [1]: > 100 µM | TGI [2]: > 100 µM | TGI [4]: > 100 µM | TGI [5]: > 100 µM | TGI [6]: > 100 µM | TGI [8]: > 100 µM | TGI [9]: > 100 µM | TGI [10]: > 100 µM | TGI [11]: > 100 µM | TGI [63]: > 100 µM | TGI [12]: > 100 µM | TGI [13]: > 100 µM | TGI [15]: > 100 µM | TGI [16]: > 100 µM | TGI [17]: > 100 µM | TGI [18]: > 100 µM | TGI [64]: > 100 µM | TGI [22]: > 100 µM | TGI [24]: > 100 µM | TGI [26]: > 100 µM | TGI [27]: > 100 µM | TGI [28]: 81.8 µM | TGI [29]: > 100 µM | TGI [30]: > 100 µM | TGI [31]: > 100 µM | TGI [65]: > 100 µM | TGI [33]: > 100 µM | TGI [34]: > 100 µM | TGI [35]: > 100 µM | TGI [37]: > 100 µM | TGI [38]: > 100 µM | TGI [39]: > 100 µM | TGI [40]: > 100 µM | TGI [41]: > 100 µM | TGI [44]: > 100 µM | TGI [45]: > 100 µM | TGI [66]: > 100 µM | TGI [46]: > 100 µM | TGI [47]: > 100 µM | TGI [48]: > 100 µM | TGI [50]: > 100 µM | TGI [67]: > 100 µM | TGI [52]: > 100 µM | TGI [53]: > 100 µM | TGI [55]: > 100 µM | TGI [56]: > 100 µM | TGI [57]: > 100 µM | TGI [59]: > 100 µM | TGI [60]: > 100 µM | TGI [61]: > 100 µM | TGI [62]: > 100 µM
